Assay in all cases: relative viability (nuclei count vs DMSO), 5 days (fraction); higher = more cells survive
Compound in assay [1]: Cc1ccc2nc(NCCN)c3ncc(C)n3c2c1 + CS(=O)(=O)CCNCc1ccc(-c2ccc3ncnc(Nc4ccc(OCc5cccc(F)c5)c(Cl)c4)c3c2)o1 [Lapatinib] (partner 2 µM)
The method in brief:
(§1)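 Lung cancer cell lines were seeded in 1536-well plates and dosed by pin tool the next day, with either a single drug or a fixed anchor-drug dose combined with five library-drug doses (not always all listed) spaced in √10 steps. Five days later, one step fixed the cells and stained their nuclei (final 0.05% Triton X-100, 1% formaldehyde, 1 ug/ml Hoechst), and nuclei were counted on 4× images. Relative viability is the nuclei count in treated wells divided by the count in vehicle wells, and each value is the median of duplicate plates.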

Compound in assay [2]: Cc1ccc2nc(NCCN)c3ncc(C)n3c2c1 + Cc1nc(Nc2ncc(C(=O)Nc3c(C)cccc3Cl)s2)cc(N2CCN(CCO)CC2)n1 [Dasatinib] (partner 0.075 µM)
In short, it runs like this:
as §1

Compound in the assay “Salubrinal + Crizotinib”: O=C(/C=C/c1ccccc1)NC(NC(=S)Nc1cccc2cccnc12)C(Cl)(Cl)Cl [Salubrinal] + C[C@@H](Oc1cc(-c2cnn(C3CCNCC3)c2)cnc1N)c1c(Cl)ccc(F)c1Cl [Crizotinib] (partner 1 µM)
In short, it runs like this:
as §1

Compound in the assay “Salubrinal + Olaparib”: O=C(/C=C/c1ccccc1)NC(NC(=S)Nc1cccc2cccnc12)C(Cl)(Cl)Cl [Salubrinal] + O=C(c1cc(Cc2n[nH]c(=O)c3ccccc23)ccc1F)N1CCN(C(=O)C2CC2)CC1 [Olaparib] (partner 8 µM)
The method in brief:
as §1

This is an account of results in the supplement of paper PMC10307832.

Turning to NCI-H2405, the relative viability in assay [1] (first compound 0.04 µM) was 1.06; in assay [1] (first compound 0.1265 µM), 1.06; in assay [1] (first compound 0.4 µM), 1.06; in assay [1] (first compound 1.265 µM) it was 1.08; in assay [1] (first compound 4 µM), 0.835; in assay [2] (first compound 0.04 µM), 0.204. Moreover, the relative viability in assay [2] (first compound 0.1265 µM) came to 0.192; in assay [2] (first compound 0.4 µM), 0.188; in assay [2] (first compound 1.265 µM), 0.185; in assay [2] (first compound 4 µM), 0.208; with Salubrinal + Crizotinib (first compound 0.08 µM) it was 0.858; with Salubrinal + Crizotinib (first compound 0.253 µM), 0.866. Further, the relative viability with Salubrinal + Crizotinib (first compound 0.8 µM) was found to be 0.922; with Salubrinal + Crizotinib (first compound 2.53 µM), 0.924; with Salubrinal + Crizotinib (first compound 8 µM) it was 0.958; in the assay with Salubrinal + Olaparib (first compound 0.08 µM), 0.951; with Salubrinal + Olaparib (first compound 0.253 µM), 0.879; in the assay with Salubrinal + Olaparib (first compound 0.8 µM), 0.925. Further, the relative viability with Salubrinal + Olaparib (first compound 2.53 µM) was 0.822; with Salubrinal + Olaparib (first compound 8 µM) it was 0.928.
Turning to NCI-H661, the relative viability in assay [1] (first compound 0.04 µM) amounted to 0.587; in assay [1] (first compound 0.1265 µM), 0.407; in assay [1] (first compound 0.4 µM), 0.43; in assay [1] (first compound 4 µM) it was 0.458; in assay [2] (first compound 0.04 µM) it was 0.927; in assay [2] (first compound 0.1265 µM), 0.943. The relative viability in assay [2] (first compound 0.4 µM) came to 0.88; in assay [2] (first compound 1.265 µM), 0.835; in assay [2] (first compound 4 µM), 0.748; with Salubrinal + Crizotinib (first compound 0.08 µM), 0.934; with Salubrinal + Crizotinib (first compound 0.8 µM), 1.1; with Salubrinal + Crizotinib (first compound 2.53 µM), 1.01. The relative viability with Salubrinal + Crizotinib (first compound 8 µM) came to 1.17; with Salubrinal + Olaparib (first compound 0.08 µM) it was 0.753; with Salubrinal + Olaparib (first compound 0.253 µM), 0.538; in the assay with Salubrinal + Olaparib (first compound 0.8 µM), 0.76; with Salubrinal + Olaparib (first compound 2.53 µM) it was 0.73; in the assay with Salubrinal + Olaparib (first compound 8 µM), 0.758.
With NCI-H1915, the relative viability came out at 1.01 in assay [1] (first compound 0.04 µM); 0.68 in assay [1] (first compound 0.4 µM); 0.991 in assay [1] (first compound 1.265 µM); 0.947 in assay [1] (first compound 4 µM); 0.334 in assay [2] (first compound 0.04 µM); 0.328 in assay [2] (first compound 0.1265 µM). Moreover, the relative viability stood at 0.291 in assay [2] (first compound 1.265 µM); 0.25 in assay [2] (first compound 4 µM); 0.994 with Salubrinal + Crizotinib (first compound 0.08 µM); 0.643 in the assay with Salubrinal + Crizotinib (first compound 0.253 µM); 1.03 with Salubrinal + Crizotinib (first compound 0.8 µM); 0.875 in the assay with Salubrinal + Crizotinib (first compound 2.53 µM). The relative viability in the assay with Salubrinal + Crizotinib (first compound 8 µM) is 0.836; in the assay with Salubrinal + Olaparib (first compound 0.08 µM), 0.256; with Salubrinal + Olaparib (first compound 0.8 µM), 0.257; in the assay with Salubrinal + Olaparib (first compound 2.53 µM), 0.28; with Salubrinal + Olaparib (first compound 8 µM) it was 0.273.
CAL-12T: the relative viability amounted to 0.892 in assay [1] (first compound 0.04 µM); 0.714 in assay [1] (first compound 0.1265 µM); 0.674 in assay [1] (first compound 0.4 µM); 0.553 in assay [1] (first compound 1.265 µM); 0.502 in assay [1] (first compound 4 µM); 0.34 in assay [2] (first compound 0.04 µM). Besides, the relative viability in assay [2] (first compound 0.1265 µM) amounted to 0.342; in assay [2] (first compound 0.4 µM) it was 0.373; in assay [2] (first compound 1.265 µM), 0.387; in assay [2] (first compound 4 µM), 0.294; in the assay with Salubrinal + Crizotinib (first compound 0.08 µM), 0.661; with Salubrinal + Crizotinib (first compound 0.253 µM), 0.484. The relative viability with Salubrinal + Crizotinib (first compound 0.8 µM) was determined as 0.806; with Salubrinal + Crizotinib (first compound 2.53 µM) it was 0.48; in the assay with Salubrinal + Crizotinib (first compound 8 µM) it was 0.446; with Salubrinal + Olaparib (first compound 0.08 µM), 0.7; in the assay with Salubrinal + Olaparib (first compound 0.253 µM) it was 0.711; with Salubrinal + Olaparib (first compound 0.8 µM), 0.751. Also, the relative viability stood at 0.725 in the assay with Salubrinal + Olaparib (first compound 2.53 µM) and 0.648 with Salubrinal + Olaparib (first compound 8 µM).
